Assay results taken from patent US10131652B2, “Pyrimidinyloxy benzene derivatives as herbicides” (E. I. DU PONT DE NEMOURS AND COMPANY, priority 2014, dated 2018).
Like-named read-outs stand apart in the source and are kept apart here.

How the values were obtained:
Assay type in all cases: in vivo
[1] = test system: pigweed (Amaranthus retroflexus); assay: Test B pre-/postemergence plant response; conditions: for pest or weed control at 1000 g/ha: Amaranthus retroflexus, 240 h, read-out: Plant response rating, Pigweed
Method in brief: (§1)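 Ratings reflect visual injury versus untreated controls, from 0 for no effect to 100 for complete control, assessed roughly 10 days after treatment. Formulation: non-phytotoxic solvent mix with surfactant; pre- and postemergence sprays on plants grown in loam soil and sand.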

[2] = test system: velvetleaf (Abutilon theophrasti); assay: Test B pre-/postemergence plant response; conditions: for pest or weed control at 1000 g/ha: Abutilon theophrasti, 240 h, read-out: Plant response rating, Velvetleaf
Method in brief: as §1

[3] = test system: large (Lg) crabgrass (Digitaria sanguinalis); assay: Test B pre-/postemergence plant response; conditions: for pest or weed control at 1000 g/ha: Digitaria sanguinalis, 240 h, read-out: Plant response rating, Crabgrass, Large
Method in brief: as §1

[4] = test system: giant foxtail (Setaria faberii); assay: Test B pre-/postemergence plant response; conditions: for pest or weed control at 1000 g/ha: Setaria faberi, 240 h, read-out: Plant response rating, Foxtail, Giant
Method in brief: as §1

corn (Zea mays) = assay: Test B pre-/postemergence plant response; conditions: for Corn plant response rating (crop injury, 0 = no effect, 100 = complete kill) at 1000 g/ha: Zea mays, 240 h
Method in brief: as §1

[5] = test system: wheat (Triticum aestivum); assay: Test B pre-/postemergence plant response; conditions: for plant injury at 1000 g/ha: Triticum aestivum, 240 h, read-out: Plant response rating, Wheat
Method in brief: as §1

[6] = test system: barnyardgrass (Echinochloa crus-galli); assay: Test B pre-/postemergence plant response; conditions: for pest or weed control at 1000 g/ha: Echinochloa crus-galli, 240 h, read-out: Plant response rating, Barnyardgrass
Method in brief: as §1

[7] = test system: morningglory (Ipomoea spp.); assay: Test B pre-/postemergence plant response; conditions: for pest or weed control at 1000 g/ha: Ipomoea, 240 h, read-out: Plant response rating, Morningglory
Method in brief: as §1

rice (Oryza sativa) [8] = assay: Test D flooded paddy test plant response; conditions: Flood (flooded paddy test), visual rating on scale 0 to 100 (0 no effect, 100 complete control), 13 to 15 days
From the text: (§2) Plant species in the flooded paddy test consisted of rice (Oryza sativa), small-flower umbrella sedge (Cyperus difformis), ducksalad (Heteranthera limosa), and bamyardgrass (Echinochloa crus-galli) grown to the 2-leaf stage for testing. At time of treatment, test pots were flooded to 3 cm above the soil surface, treated by application of test compounds directly to the paddy water, and then maintained at that water depth for the duration of the test. Treated plants and controls were maintained in a greenhouse for 13 to 15 days, after which time all species were compared to controls and visually evaluated. Plant response ratings, summarized in Table D, are based on a scale of 0 to 100 where 0 is no effect and 100 is complete control. A dash (-) response means no test result.

[9] = test system: ducksalad (Heteranthera limosa); assay: Test D flooded paddy test plant response; conditions: Flood (flooded paddy test), visual rating on scale 0 to 100 (0 no effect, 100 complete control), 13 to 15 days
From the text: as §2

[10] = test system: small-flower umbrella sedge (Cyperus difformis); assay: Test D flooded paddy test plant response; conditions: Flood (flooded paddy test), visual rating on scale 0 to 100 (0 no effect, 100 complete control), 13 to 15 days
From the text: as §2

[11] = test system: barnyardgrass (Echinochloa crus-galli); assay: Test D flooded paddy test plant response; conditions: Flood (flooded paddy test), visual rating on scale 0 to 100 (0 no effect, 100 complete control), 13 to 15 days
From the text: as §2

rice (Oryza sativa) [12] = assay: Test C flooded paddy test plant response; conditions: Flood, 250 g ai/ha; scale of 0 to 100 where 0 is no effect and 100 is complete control; 13 to 15 days
Method in brief: (§3)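 Visual injury ratings (0, no effect; 100, complete control) were assigned after 13 to 15 days in a greenhouse, comparing treated plants with controls. Compounds had been added straight into paddy water over 2-leaf-stage plants flooded to 3 cm.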

[13] = test system: ducksalad (Heteranthera limosa); assay: Test C flooded paddy test plant response; conditions: Flood, 250 g ai/ha; scale of 0 to 100 where 0 is no effect and 100 is complete control; 13 to 15 days
Method in brief: as §3

[14] = test system: small-flower umbrella sedge (Cyperus difformis); assay: Test C flooded paddy test plant response; conditions: Flood, 250 g ai/ha; scale of 0 to 100 where 0 is no effect and 100 is complete control; 13 to 15 days
Method in brief: as §3

[15] = test system: barnyardgrass (Echinochloa crus-galli); assay: Test C flooded paddy test plant response; conditions: Flood, 250 g ai/ha; scale of 0 to 100 where 0 is no effect and 100 is complete control; 13 to 15 days
Method in brief: as §3

[16] = post-emergence, Postemergence, 1000 g ai/ha, 0 to 100 scale (0 no effect, 100 complete control)
[17] = pre-emergence, Preemergence, 1000 g ai/ha, 0 to 100 scale (0 no effect, 100 complete control)
[18] = Postemergence, 1000 g ai/ha, 0 to 100 scale (0 no effect, 100 complete control)
[19] = Preemergence, 1000 g ai/ha, 0 to 100 scale (0 no effect, 100 complete control)
[20] = 125 g ai/ha, postemergence, 0 to 100 scale, 0 no effect, 100 complete control
[21] = 500 g ai/ha, postemergence, 0 to 100 scale, 0 no effect, 100 complete control
[22] = Preemergence, 125 g ai/ha, 0 to 100 scale (0 no effect, 100 complete control)
[23] = Preemergence, 500 g ai/ha, 0 to 100 scale where 0 is no effect and 100 is complete control

Clc1ccc(-c2ccccc2Oc2ncc(Cl)cn2)nc1 [Compound 1, 5-chloro-2-[2-(5-chloro-2-pyridinyl)phenoxy]pyrimidine]
60%: pest or weed control at 1000 g/ha [7, 16]
100%: pest or weed control at 1000 g/ha [1, 16] | pest or weed control at 1000 g/ha [1, 17] | pest or weed control at 1000 g/ha [2, 16] | pest or weed control at 1000 g/ha [3, 17] | pest or weed control at 1000 g/ha [4, 17]
0: Plant response rating, Rice (rice (Oryza sativa) [8]; 31 g ai/ha) | Plant response rating, Rice (rice (Oryza sativa) [8]; 62 g ai/ha) | Plant response rating, Rice (rice (Oryza sativa) [8]; 125 g ai/ha) | Plant response rating, Rice (rice (Oryza sativa) [8]; 250 g ai/ha) | Plant response rating, Ducksalad ([9]; 31 g ai/ha) | Plant response rating, Ducksalad ([9]; 62 g ai/ha) | Plant response rating, Ducksalad ([9]; 125 g ai/ha) | Plant response rating, Ducksalad ([9]; 250 g ai/ha) | Plant response rating, Sedge, Umbrella ([10]; 31 g ai/ha) | Plant response rating, Sedge, Umbrella ([10]; 62 g ai/ha) | Plant response rating, Sedge, Umbrella ([10]; 125 g ai/ha) | Plant response rating, Sedge, Umbrella ([10]; 250 g ai/ha) | Plant response rating, Barnyardgrass ([11]; 31 g ai/ha) | Plant response rating, Barnyardgrass ([11]; 62 g ai/ha) | Plant response rating, Barnyardgrass ([11]; 125 g ai/ha) | Plant response rating, Barnyardgrass ([11]; 250 g ai/ha)
10%: Corn plant response rating (crop injury, 0 = no effect, 100 = complete kill) at 1000 g/ha (corn (Zea mays); [16])
0%: Corn plant response rating (crop injury, 0 = no effect, 100 = complete kill) at 1000 g/ha (corn (Zea mays); [17]) | plant injury at 1000 g/ha [5, 16] | plant injury at 1000 g/ha [5, 17]
20%: pest or weed control at 1000 g/ha [7, 17]
80%: pest or weed control at 1000 g/ha [2, 17] | pest or weed control at 1000 g/ha [4, 16] | pest or weed control at 1000 g/ha [6, 17]
70%: pest or weed control at 1000 g/ha [3, 16] | pest or weed control at 1000 g/ha [6, 16]

FC(F)(F)Oc1cccc(-c2ccccc2Oc2ncc(Cl)cn2)c1 [Compound 40]
100: Plant response rating, Pigweed [1, 18] | Plant response rating, Pigweed [1, 19] | Plant response rating, Velvetleaf [2, 18] | Plant response rating, Foxtail, Giant [4, 19] | Plant response rating, Morningglory [7, 18]
90: Plant response rating, Velvetleaf [2, 19]
30: Plant response rating, Barnyardgrass [6, 18] | Plant response rating, Sedge, Umbrella ([10]; 125 g ai/ha)
10: Plant response rating, Wheat [5, 18]
50: Plant response rating, Crabgrass, Large [3, 18] | Plant response rating, Foxtail, Giant [4, 18] | Plant response rating, Barnyardgrass [6, 19] | Plant response rating, Sedge, Umbrella ([10]; 250 g ai/ha)
70: Plant response rating, Crabgrass, Large [3, 19]
0: Plant response rating, Corn (corn (Zea mays); [19]) | Plant response rating, Wheat [5, 19] | Plant response rating, Morningglory [7, 19] | Plant response rating, Rice (rice (Oryza sativa) [8]; 31 g ai/ha) | Plant response rating, Rice (rice (Oryza sativa) [8]; 62 g ai/ha) | Plant response rating, Rice (rice (Oryza sativa) [8]; 125 g ai/ha) | Plant response rating, Rice (rice (Oryza sativa) [8]; 250 g ai/ha) | Plant response rating, Ducksalad ([9]; 31 g ai/ha) | Plant response rating, Ducksalad ([9]; 62 g ai/ha) | Plant response rating, Sedge, Umbrella ([10]; 31 g ai/ha) | Plant response rating, Sedge, Umbrella ([10]; 62 g ai/ha) | Plant response rating, Barnyardgrass ([11]; 31 g ai/ha) | Plant response rating, Barnyardgrass ([11]; 62 g ai/ha) | Plant response rating, Barnyardgrass ([11]; 125 g ai/ha) | Plant response rating, Barnyardgrass ([11]; 250 g ai/ha)
40: Plant response rating, Ducksalad ([9]; 250 g ai/ha)
20: Plant response rating, Corn (corn (Zea mays); [18]) | Plant response rating, Ducksalad ([9]; 125 g ai/ha)

N#Cc1cccc(-n2cc(Br)cn2)c1Oc1ncc(Cl)cn1 [Compound 209]
90: Plant response rating, Pigweed [1, 20] | Pigweed plant response rating [1, 22]
100: Plant response rating, Pigweed [1, 21] | Plant response rating, Pigweed [1, 23] | Plant response rating, Crabgrass, Large [3, 23] | Plant response rating, Foxtail, Giant [4, 23]
70: Crabgrass, Large plant response rating [3, 22]
0: Velvetleaf plant response rating [2, 22] | Plant response rating, Velvetleaf [2, 23] | Plant response rating, Foxtail, Giant [4, 20] | Plant response rating, Corn (corn (Zea mays); [20]) | Plant response rating, Corn (corn (Zea mays); [21]) | Corn plant response rating (corn (Zea mays); [22]) | Plant response rating, Corn (corn (Zea mays); [23]) | Plant response rating, Wheat [5, 20] | Plant response rating, Wheat [5, 21] | Wheat plant response rating [5, 22] | Plant response rating, Wheat [5, 23] | Plant response rating, Barnyardgrass [6, 20] | Plant response rating, Barnyardgrass [6, 21] | Barnyardgrass plant response rating [6, 22] | Morningglory plant response rating [7, 22] | Plant response rating, Morningglory [7, 23] | Rice plant response rating (rice (Oryza sativa) [12]) | Ducksalad plant response rating [13] | Sedge, Umbrella plant response rating [14] | Barnyardgrass plant response rating [15]
10: Plant response rating, Crabgrass, Large [3, 20] | Plant response rating, Barnyardgrass [6, 23]
30: Plant response rating, Velvetleaf [2, 20] | Plant response rating, Velvetleaf [2, 21] | Plant response rating, Crabgrass, Large [3, 21] | Plant response rating, Foxtail, Giant [4, 21] | Foxtail, Giant plant response rating [4, 22] | Plant response rating, Morningglory [7, 20] | Plant response rating, Morningglory [7, 21]
